Among the test systems are SK-MEL-2 melanoma; OVCAR-4 ovarian; SK-OV-3 ovarian; A498 renal; HL-60(TB) leukemia; BT-549 breast; NCI-H23 lung; HOP-92 NSCLC; HCC-2998 colon; UACC-62 melanoma.
Common to all, as to test: DTP human tumour cell line panel, 48 h

≈ marks a conversion by molar mass, not a printed value. Where “and” joins values, the source holds several entries; their conditions need not be identical. Equal entries are not always repeated.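 Interpolation was linear, between the two tested concentrations surrounding the appropriate level; five concentrations were tested over 48 hours in 96-well plates. Abbreviation: GI50, concentration required for 50% inhibition of growth. TGI: concentration producing complete growth inhibition.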

`C=CC[PH+](c1ccccc1)c1ccccc1.C=CC[PH+](c1ccccc1)c1ccccc1.[Pt+2].[S-]c1nc2ccccc2[nH]1.[S-]c1nc2ccccc2[nH]1`: the GI50 is 2.25 µM with SK-MEL-2 melanoma; 2.56 µM with OVCAR-4 ovarian; 3.16 µM with SK-OV-3 ovarian; 1.72 µM with A498 renal; 2.51 µM with HL-60(TB) leukemia; 2.11 µM with BT-549 breast. In addition, the TGI with SK-MEL-2 melanoma was 5.36 µM; in the assay with OVCAR-4 ovarian, greater than 100 µM; in the assay on SK-OV-3 ovarian, 27.4 µM; in the assay with A498 renal it was 4.98 µM; in the assay on HL-60(TB) leukemia it was 7.32 µM; with BT-549 breast, 5.54 µM.

For `O=C1c2cccc3cc([N+](=O)[O-])cc(c23)C(=O)N1c1ccc(OCCN2CCCC2)cc1`, the TGI in the assay on SK-MEL-2 melanoma was 54.3 µM; in the assay with OVCAR-4 ovarian it was 67.2 µM; in the assay with NCI-H23 lung it was 39.7 µM; in the assay on HOP-92 NSCLC it was greater than 100 µM; in the assay on A498 renal, 32.2 µM; in the assay on HCC-2998 colon it was 33.5 µM. Also, the concentration for total growth inhibition (TGI) with HL-60(TB) leukemia amounted to 29 µM.

With `C1CCC(CC2CCC(NC3=NCCO3)CC2)CC1` (stereo not drawn), the total growth inhibition concentration (TGI) with SK-MEL-2 melanoma is 32.4 µM; with UACC-62 melanoma, 31.1 µM; with OVCAR-4 ovarian it was 48.2 µM; with SK-OV-3 ovarian it was 38.4 µM; in the assay on NCI-H23 lung it was 36.5 µM; in the assay on A498 renal, 53.3 µM. Moreover, the figures for the TGI with HCC-2998 colon and in the assay on HL-60(TB) leukemia were 37.1 µM and 34 µM, respectively.

Regarding `COC(=O)[C@@H]1CN(C(=O)Cc2ccccc2)C(=O)N1`, the total growth inhibition concentration (TGI) in the assay on UACC-62 melanoma, in the assay with OVCAR-4 ovarian, with NCI-H23 lung, with HOP-92 NSCLC, with A498 renal and in the assay with HL-60(TB) leukemia was greater than 100 µM each time.

For the molecule `O=C(OC[C@H]1C[C@H]2C(=O)OCCC[C@H]2O1)c1ccccc1`, the concentration for total growth inhibition (TGI) with SK-MEL-2 melanoma, in the assay on UACC-62 melanoma, in the assay on OVCAR-4 ovarian, in the assay on SK-OV-3 ovarian, with NCI-H23 lung and in the assay with HOP-92 NSCLC was greater than 100 µM throughout. The concentration for total growth inhibition (TGI) in the assay with A498 renal and with HL-60(TB) leukemia was greater than 100 µM in each case.

As to `Cc1cc2c3ccccc3n3c2c2c1OC1(C)CCC(C2C1)C3(C)C` (stereo not drawn), the TGI in the assay with SK-MEL-2 melanoma, in the assay on UACC-62 melanoma, with OVCAR-4 ovarian, in the assay on SK-OV-3 ovarian, with HOP-92 NSCLC and with HCC-2998 colon was greater than 25 µM in each case. Moreover, in the assay on HL-60(TB) leukemia, the TGI is greater than 25 µM.

Consider `COc1ccc(N2C(=O)[C@@H]3[C@@H]4CC(C)CC[C@@H]4c4c([nH]c5ccccc45)[C@@H]3C2=O)cc1` (stereo partly drawn), for which the concentration for total growth inhibition (TGI) is 28.5 µM with SK-MEL-2 melanoma; 40.8 µM in the assay with UACC-62 melanoma; 37 µM in the assay on OVCAR-4 ovarian; 22.8 µM in the assay with SK-OV-3 ovarian; greater than 47.5 µM in the assay with NCI-H23 lung; 23 µM with HOP-92 NSCLC. The results for the TGI in the assay with A498 renal, in the assay with HCC-2998 colon and in the assay with HL-60(TB) leukemia were 35.9 µM, greater than 100 µM and 89.4 µM, respectively.

As to `CCOC(=O)CN(CC)C(=O)NC12CC3CC(CC(C3)C1)C2`, the concentration for total growth inhibition (TGI) with SK-MEL-2 melanoma is 281 µM; in the assay on UACC-62 melanoma, 312 µM; in the assay with OVCAR-4 ovarian, 568 µM; in the assay with SK-OV-3 ovarian, 513 µM; with NCI-H23 lung it was 560 µM; with HOP-92 NSCLC, 176 µM. Besides, the TGI was found to be 413 µM in the assay on A498 renal, 700 µM with HCC-2998 colon and 348 µM in the assay on HL-60(TB) leukemia.

As to `CCOc1c2c(cc3c1C(=O)c1c(OC)cccc1C3=O)C=C(OC)CC2`, the total growth inhibition concentration (TGI) with SK-MEL-2 melanoma, in the assay on UACC-62 melanoma, in the assay on OVCAR-4 ovarian, in the assay with SK-OV-3 ovarian, in the assay on NCI-H23 lung and in the assay on HOP-92 NSCLC was greater than 25 µM in each case. The results for the TGI in the assay on A498 renal and in the assay on HL-60(TB) leukemia were greater than 25 µM and 13.2 µM, respectively.

Regarding `COC(=O)CC(=O)OC1C[C@@H]2CCC3C(C)(C)CCC[C@]3(C)C23CC[C@@]1(C)C3` (stereo partly drawn), the total growth inhibition concentration (TGI) with UACC-62 melanoma stood at 30.7 µM; in the assay on OVCAR-4 ovarian, 32.5 µM; in the assay on SK-OV-3 ovarian it was 52.4 µM; in the assay with NCI-H23 lung it was 33.5 µM; in the assay with HOP-92 NSCLC, 31.9 µM; in the assay with HCC-2998 colon, 35 µM. Further, in the assay on HL-60(TB) leukemia, the concentration for total growth inhibition (TGI) was greater than 100 µM.

Take `Cc1c2ccncc2c(C)c2c1[nH]c1ccc(O)cc12`: the GI50 in the assay on OVCAR-4 ovarian was 0.148 µg/mL; with SK-OV-3 ovarian, 0.0393 µg/mL; with NCI-H23 lung, 11800 µM; with HOP-92 NSCLC, 0.0448 µg/mL (≈ 0.171 µM); in the assay on A498 renal it was 0.501 µg/mL; in the assay with HCC-2998 colon, 0.261 µg/mL (≈ 0.996 µM). The TGI in the assay with OVCAR-4 ovarian is 0.303 µg/mL; in the assay with SK-OV-3 ovarian, 0.261 µg/mL; in the assay with NCI-H23 lung, 84.1 mM and 0.0172 µg/mL; with HOP-92 NSCLC it was 0.579 µg/mL; in the assay on A498 renal, 1.9 µg/mL; with HCC-2998 colon it was 1.63 µg/mL. Also, the TGI in the assay on HL-60(TB) leukemia amounted to 0.0548 µg/mL.

For the molecule `CN1N=C(c2ccncc2)OC1c1ccc(C(F)(F)F)cc1` (stereo not drawn), the TGI in the assay with SK-MEL-2 melanoma, with UACC-62 melanoma, in the assay with OVCAR-4 ovarian, in the assay on SK-OV-3 ovarian, with NCI-H23 lung and with A498 renal was greater than 100 µM each time. The TGI in the assay on HCC-2998 colon and in the assay on HL-60(TB) leukemia was greater than 100 µM in each case.

Take `CCCCCCNC(=O)CCN(C(=O)O)S(=O)(=O)c1ccc(NC(=O)c2ccccc2)cc1`: the total growth inhibition concentration (TGI) was greater than 100 µM in the assay with SK-MEL-2 melanoma; greater than 77.7 µM in the assay on UACC-62 melanoma; greater than 100 µM in the assay on OVCAR-4 ovarian; greater than 100 µM in the assay with SK-OV-3 ovarian; greater than 100 µM in the assay with NCI-H23 lung; greater than 100 µM in the assay with HOP-92 NSCLC. Besides, the TGI in the assay on A498 renal is greater than 100 µM; in the assay with HCC-2998 colon it was greater than 100 µM; in the assay with HL-60(TB) leukemia it was greater than 64.2 µM.

As to `COC1=CC(=O)C2(C=C1OC)OC[C@H]1Oc3c(ccc4c3C=CC(C)(C)O4)C(=O)[C@H]12` (stereo partly drawn), the TGI in the assay on SK-MEL-2 melanoma was greater than 100 µM; with UACC-62 melanoma, greater than 100 µM; in the assay with SK-OV-3 ovarian, greater than 100 µM; with NCI-H23 lung it was 95.3 µM; in the assay on HOP-92 NSCLC, 44.3 µM; in the assay on A498 renal it was greater than 100 µM. The TGI was greater than 100 µM with HCC-2998 colon and 44.6 µM in the assay with HL-60(TB) leukemia.

In the case of `CN1C/C(=C\c2ccccc2)C2=NN(C(N)=S)[C@H](c3ccccc3)[C@@H]2C1`, the TGI in the assay on SK-MEL-2 melanoma, in the assay on UACC-62 melanoma, in the assay with OVCAR-4 ovarian, with SK-OV-3 ovarian, with NCI-H23 lung and with HOP-92 NSCLC was greater than 100 µM in each case. In addition, the TGI with A498 renal was greater than 100 µM; with HCC-2998 colon, greater than 100 µM; with HL-60(TB) leukemia, 54.8 µM.

The record behind these values is PubChem BioAssay (NCI).
